# Tests used:
# [1] = tested on: stomach cancer mice model; experiment: TUNEL assay of apoptosis in stomach tissue of stomach cancer mice; type: in vivo, C57BL/6 mice; details: relative to untreated control; oral, 5 doses every 3rd day
# Protocol: (§1) A stomach cancer mice model was developed by feeding N-methyl-N-nitrosourea (NMNU) with water (IACUC protocol no A-201019-A). The 6-week-old C57BL/6 mice were kept in a 12 hr light-12 hr dark cycle. The mice had unprotected access to food and water. NMNU was dissolved in distilled water available ad libitum, freshly prepared three times per week. The mice received 240 ppm NMNU in the drinking water over 5 weeks (every other week). Five weeks after NMNU administration, the mice were ready for the experiment, as the method was reported elsewhere. A total of 30 stomach cancer mice were prepared and divided randomly into 5 groups—no treatment (control), 5FU, BG/5FU, siRNA, BG/siRNA, and BG/5FU/siRNA. Another group of healthy mice were used as a negative control without any treatment. […] Immediately after harvesting the size and weight of the stomach and intestine were measured.
# A TUNEL assay was conducted to investigate the apoptosis within the tissue from the stomach of both healthy, untreated cancer, and treated cancer mice. […] Apoptosis was quantified by the mean fluorescent intensity and compared with healthy control and untreated control. The degree of apoptosis was calculated as 49, 107, 38, 62, and 131% for the 5FU, BG/5FU, siRNA, BG/siRNA, and BG/5FU/siRNA group relative to untreated control, respectively.
# Bcl2 [2] = experiment: Western blotting of Bcl2 in stomach tissue lysate; type: in vivo, C57BL/6 mice; details: healthy = 1
# Protocol: as §1, with “treatment. To investigate therapeutic feasibility, 5FU (10 mg/kg) and siRNA (100 nM) was administered either orally (PO) or intravenously (IV). All the formulations were freshly prepared prior to administration.” for “treatment.”
# The fresh frozen stomach tissue was homogenized using RIPA buffer with freshly prepared protease inhibitor in it. […] The supernatant was collected, and the total protein content was determined using Bradford's assay (Sigma-Aldrich). […] The band intensities were calculated using ImageJ software.
# Bcl2 [3] = experiment: Immunohistochemistry/immunofluorescence of Bcl2 in stomach sections; type: in vivo, C57BL/6 mice; details: anti-Bcl2 positive area vs whole section stained with DAPI
# Protocol: as §1, with “measured. […]” for “measured.”
# The stomach tissue was also utilized to analysis Bcl2 protein expression using immunohistochemistry (IHC). The anti-Bcl2 positive area was quantified in comparison to the whole tissue section stained with DAPI. […] To measure the relative expression of Bcl2 on the tissue section the data was calculated and compared with the stomach tissue collected from the healthy mice, where Bcl2 expression in healthy mice was considered as 100% (FIG. 5B). […]
# Ki67 = experiment: Immunofluorescence of Ki67 in stomach sections; type: in vivo, C57BL/6 mice; details: vs whole tissue section DAPI stained
# Protocol: as §1, with “measured. […]” for “measured.”
# Cell proliferation marker was measured by immunofluorescence assay to evaluate the antitumor effect of the formulations. […] The protein expression was quantified from immunofluorescence images. The area with Ki67 positive cells was measured in compared to the whole tissue section with DAPI stained. The area (%) of healthy, untreated, 5FU, BG/5FU, siRNA, BG/siRNA, and BG/5FU/siRNA was measured as 0.16%, 0.27%, 0.54%, 0.52%, 0.38%, 0.29%, and 0.03%, respectively. […]
# [4] = tested on: stomach cancer mice model; experiment: H&E histology of stomach; type: in vivo, C57BL/6 mice; details: 10× magnification, whole tumor area
# Protocol: A stomach cancer mice model was developed by feeding N-methyl-N-nitrosourea (NMNU) with water (IACUC protocol no A-201019-A). The 6-week-old C57BL/6 mice were kept in a 12 hr light-12 hr dark cycle. The mice had unprotected access to food and water. NMNU was dissolved in distilled water available ad libitum, freshly prepared three times per week. The mice received 240 ppm NMNU in the drinking water over 5 weeks (every other week). Five weeks after NMNU administration, the mice were ready for the experiment, as the method was reported elsewhere. A total of 30 stomach cancer mice were prepared and divided randomly into […]—no treatment (control), 5FU, BG/5FU, siRNA, BG/siRNA, and BG/5FU/siRNA. Another group of healthy mice were used as a negative control without any treatment. To investigate therapeutic feasibility, 5FU (10 mg/kg) and siRNA (100 nM) was administered either orally (PO) or intravenously (IV). All the formulations were freshly prepared prior to administration. Formulations were administered orally on every 3rd day for the subsequent 5 cycles over 15 days. The animals were sacrificed 72 hr after the last treatment followed by the organ harvest and blood collection for further studies. Immediately after harvesting the size and weight of the stomach and intestine were measured. […]
# [5] = tested on: advanced colorectal cancer; details: cited from earlier work
# [6] = Ex vivo diffusion study in porcine intestine lumen; type: in vitro ADME; details: for distribution in intestine layers (fluorescence): with BG
# From the text: The mucoadhesiveness and intestinal transportation of hydrophobic small molecule were further confirmed by an ex vivo diffusion study in a porcine intestine lumen. As the mucous layer is a barrier for hydrophobic molecules, to check how it crosses through the epithelial layer with assistance of BG we have used coumarin-6, a small molecule hydrophobic fluorescent dye with similar chemical and physical properties (molecular weight and hydrophobicity) as 5FU, for ease of visualization and detection purpose. […] The same tissue was subjected to be observed under a ChemiDoc imager to capture the fluorescence signal within the cross-sectioned of the intestinal lumen and similar result was observed. With time (30 min, 2 hr, and 12 hr) more coumarin-6 were distributed throughout the intestine which is an indication and confirmation of BG's ability to facilitate intestinal transportation of hydrophobic payload (FIG. 2C).
SMILES,degree of apoptosis (mean fluorescent intensity) [1] [%],Relative expression of Bcl2 (WB) (Bcl2 [2]),area percentage of Bcl2 antibodies (Bcl2 [3]) [%],area of Ki67 positive cells (Ki67) [%],tumor in stomach by H&E [4],treatment response rate [5],distribution in intestine layers (fluorescence) ([6]; 2nd hr),distribution in intestine layers (fluorescence) ([6]; 12th hr),diffusion through the intestinal layer ([6]; without BG)
"O=c1[nH]cc(F)c(=O)[nH]1 [5FU, 5-fluoreuracil]",49,1.24±0.11,1.22,0.54,tumor region got significantly reduced,10-15%,–,–,–
"CCN(CC)c1ccc2cc(-c3nc4ccccc4s3)c(=O)oc2c1 [coumarin-6, Coumarin 6]",–,–,–,–,–,–,observed within deeper layers of the intestine,incorporates evenly across the layers of the intestine,not able to diffuse through the intestinal layer
